# Earlier results, collected in patent US9745365B2, “Anti-influenza B virus hemagglutinin antibodies and methods of use” (priority 2014, dated 2017).
# Target: influenza B neuraminidase (Influenza B virus, UniProt P03474)
# Conditions: higher
# Sequence of influenza B neuraminidase (P03474 whole entry): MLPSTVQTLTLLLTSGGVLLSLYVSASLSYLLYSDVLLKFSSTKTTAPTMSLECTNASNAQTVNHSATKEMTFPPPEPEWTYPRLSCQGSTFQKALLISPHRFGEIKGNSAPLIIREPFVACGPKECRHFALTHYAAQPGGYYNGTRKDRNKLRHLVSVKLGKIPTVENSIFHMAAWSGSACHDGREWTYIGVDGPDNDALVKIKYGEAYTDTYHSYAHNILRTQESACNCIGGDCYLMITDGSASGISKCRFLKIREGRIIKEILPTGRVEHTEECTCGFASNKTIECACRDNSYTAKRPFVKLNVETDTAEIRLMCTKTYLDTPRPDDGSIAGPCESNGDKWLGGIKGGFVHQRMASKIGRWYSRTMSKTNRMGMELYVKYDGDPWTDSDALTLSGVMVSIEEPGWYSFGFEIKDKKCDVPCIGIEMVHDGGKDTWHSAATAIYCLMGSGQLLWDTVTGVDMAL
compound,measurement,value
CCOC(=O)C1=C[C@@H](OC(CC)CC)[C@H](NC(C)=O)[C@@H](N)C1 [oseltamivir phosphate],IC50 for influenza B neuraminidase compared to that for influenza A neuraminidase,10 fold
